Broadly, the EC50 is the concentration that produces a half-maximal response. The IC50 is the point on the concentration scale where inhibition reaches its midpoint.

Calls of active or inactive are those of the source. A value given as a limit tells only on which side of the number the result lay.

The record followed here is ChEMBL document CHEMBL1201862, “PubChem BioAssay data set” (2004).

Test [1] addresses T1, Mucolipin-3 (Homo sapiens, UniProt Q8TDD5).
T1 sequence (Q8TDD5 whole entry): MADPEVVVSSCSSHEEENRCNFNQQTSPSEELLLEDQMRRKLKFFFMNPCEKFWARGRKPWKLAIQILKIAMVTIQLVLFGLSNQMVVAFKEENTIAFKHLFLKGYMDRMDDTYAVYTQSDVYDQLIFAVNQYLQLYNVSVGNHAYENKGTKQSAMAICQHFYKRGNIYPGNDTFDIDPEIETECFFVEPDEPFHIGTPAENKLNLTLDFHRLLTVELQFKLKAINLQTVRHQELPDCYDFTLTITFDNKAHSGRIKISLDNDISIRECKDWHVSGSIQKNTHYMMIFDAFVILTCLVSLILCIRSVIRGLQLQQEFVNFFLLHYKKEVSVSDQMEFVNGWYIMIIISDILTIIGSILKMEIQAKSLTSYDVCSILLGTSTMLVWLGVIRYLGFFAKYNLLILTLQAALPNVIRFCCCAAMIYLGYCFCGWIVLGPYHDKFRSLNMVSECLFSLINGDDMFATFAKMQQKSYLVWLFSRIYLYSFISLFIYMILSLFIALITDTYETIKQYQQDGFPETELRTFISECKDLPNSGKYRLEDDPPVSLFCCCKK
The test is described as follows: Dose response cell-based high-throughput screening assay for agonists of the transient receptor potential channel ML3 (TRPML3). [Related pubchem assays: 1526, 1424, 1448 ]. Type of test: functional.

Test [2] addresses T2, Ion channel NompC (Danio rerio, UniProt Q7T1G6). The experiment in a line: activators of mucolipin-3 and mucolipin-2 – cell-based, […], Fura-2 profiling panel, panel member TRPN1 Dose Response (AID 2116).
A short description of test [3]: alpha-synuclein stem-loop luciferase translation blockers – H4 neuroglioma cells, luminescence, confirmation (AID 1988). Type of test: functional, cell-based.
The target in test [4] is T2, Ion channel NompC. The experiment in a line: Fluorescence counterscreen assay for TRPML3 agonists: dose response cell-based high-throughput screening assay to identify agonists of the transient receptor potential channel N1 (TRPN1). [Related pubchem assays: 1526, 1424, 1448 ]. Type of test: functional. (In general: A counterscreen serves to expose hits that act by an unwanted route or on another target.)

Test [5] in a line: Luminescence Cell-Based Dose Response HTS to Identify Inhibitors of 5'UTR Stem-Loop Driven Prion Protein mRNA Translation in H4 Neuroglioblastoma Cells. [Related pubchem assays: 1827 (Project Summary), 1813 (Primary HTS)]. It counts as functional.
Test [6] in a line: HEK-293T viability loss after treatment – luminescence, T-cell screen hits, cytotoxicity control for TCR NF-kB inhibitor project, dose response (AID 489026).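 Further: cells exposed to compound about 14 hours before the viability readout.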 It counts as functional, cell-based.
The target of test [7] is T1, Mucolipin-3. The test is described as follows: activators of mucolipin-3 and mucolipin-2 – cell-based, patch clamp, Fura-2 profiling panel, panel member TRPML3 Dose Response (AID 2116). Background: In patch-clamp work, channel activity is measured electrically.
Test [8] in a line: luciferase reporter signal suppression in cells – H4 neuroglioma cells, luminescence, dose response (AID 1990). Type of test: functional, cell-based.
Test [9] has as its target T3, Eukaryotic translation initiation factor 2-alpha kinase 3 (Homo sapiens, UniProt Q9NZJ5). The test is described as follows: Dose response cell-based high-throughput screening assay to measure PERK inhibition. [Related pubchem assays: 1416 ]. Type of test: functional.
For test [10], the target named is T3, Eukaryotic translation initiation factor 2-alpha kinase 3. The experiment in a line: Counterscreen assay for PERK inhibitors: Dose response cell-based high throughput screening assay to measure inhibition of PERK at 6 hours. [Related pubchem assays: 1522, 1416 ]. Type of test: functional.
The target in test [11] is T4, Neuropeptide Y receptor type 2 (Homo sapiens, UniProt P49146).
T4 sequence (P49146 whole entry): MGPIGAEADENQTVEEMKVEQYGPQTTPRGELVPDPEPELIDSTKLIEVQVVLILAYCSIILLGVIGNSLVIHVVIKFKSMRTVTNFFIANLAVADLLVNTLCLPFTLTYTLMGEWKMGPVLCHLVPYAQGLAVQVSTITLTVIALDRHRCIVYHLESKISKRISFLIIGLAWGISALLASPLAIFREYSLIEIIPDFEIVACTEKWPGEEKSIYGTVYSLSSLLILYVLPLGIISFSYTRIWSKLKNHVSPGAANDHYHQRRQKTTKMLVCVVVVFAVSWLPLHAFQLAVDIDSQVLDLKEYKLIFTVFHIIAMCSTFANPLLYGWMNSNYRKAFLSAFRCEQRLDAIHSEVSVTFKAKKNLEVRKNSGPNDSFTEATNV
The test is described as follows: Fluorescence-based cell-based high-throughput dose response assay for agonists of NPY-Y2. [Related pubchem assays: 1703 (Screening assay (CNGC inhibitors).), 1359 (Screening assay (NPY-Y2 potentiators or agonists).), 1304 (Screening assay (NPY-Y1 potentiators or agonists).), 1710 (Screening assay (NPY-Y2 agonists).), 1791 (Summary AID.)]. Type of test: functional.

For test [12], the target named is T5, Neuropeptide Y receptor type 1 (Homo sapiens, UniProt P25929).
T5 sequence (P25929 whole entry): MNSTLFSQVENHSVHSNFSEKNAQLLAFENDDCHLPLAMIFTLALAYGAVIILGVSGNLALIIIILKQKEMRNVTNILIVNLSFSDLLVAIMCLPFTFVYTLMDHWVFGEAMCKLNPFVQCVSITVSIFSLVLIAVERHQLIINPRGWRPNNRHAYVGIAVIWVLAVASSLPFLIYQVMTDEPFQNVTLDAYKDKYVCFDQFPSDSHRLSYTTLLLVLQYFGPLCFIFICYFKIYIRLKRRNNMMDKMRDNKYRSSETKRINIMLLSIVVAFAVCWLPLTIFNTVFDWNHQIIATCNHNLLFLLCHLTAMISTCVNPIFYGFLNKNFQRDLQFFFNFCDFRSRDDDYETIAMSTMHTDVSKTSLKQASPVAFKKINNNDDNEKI
The test is described as follows: Fluorescence-based counterscreen for agonists of NPY-Y2: cell-based high-throughput dose response assay for agonists of NPY-Y1. Type of test: functional.

The subject of test [13] is HEK293. The experiment in a line: Fluorescence-based counterscreen for potentiators or agonists of NPY-Y2: cell-based high-throughput dose response assay to identify inhibitors of cyclic nucleotide gated ion channel (CNGC) activity. In this assay, the parental HEK293 cell line transfected with a cyclic-nucleotide gated ion channel (CNGC)-based cAMP sensor is used to measure inhibition of isoproterenol-induced CNGC activity by test compound. Type of test: functional. The following applies: Homo sapiens.

T2 sequence (Q7T1G6 whole entry): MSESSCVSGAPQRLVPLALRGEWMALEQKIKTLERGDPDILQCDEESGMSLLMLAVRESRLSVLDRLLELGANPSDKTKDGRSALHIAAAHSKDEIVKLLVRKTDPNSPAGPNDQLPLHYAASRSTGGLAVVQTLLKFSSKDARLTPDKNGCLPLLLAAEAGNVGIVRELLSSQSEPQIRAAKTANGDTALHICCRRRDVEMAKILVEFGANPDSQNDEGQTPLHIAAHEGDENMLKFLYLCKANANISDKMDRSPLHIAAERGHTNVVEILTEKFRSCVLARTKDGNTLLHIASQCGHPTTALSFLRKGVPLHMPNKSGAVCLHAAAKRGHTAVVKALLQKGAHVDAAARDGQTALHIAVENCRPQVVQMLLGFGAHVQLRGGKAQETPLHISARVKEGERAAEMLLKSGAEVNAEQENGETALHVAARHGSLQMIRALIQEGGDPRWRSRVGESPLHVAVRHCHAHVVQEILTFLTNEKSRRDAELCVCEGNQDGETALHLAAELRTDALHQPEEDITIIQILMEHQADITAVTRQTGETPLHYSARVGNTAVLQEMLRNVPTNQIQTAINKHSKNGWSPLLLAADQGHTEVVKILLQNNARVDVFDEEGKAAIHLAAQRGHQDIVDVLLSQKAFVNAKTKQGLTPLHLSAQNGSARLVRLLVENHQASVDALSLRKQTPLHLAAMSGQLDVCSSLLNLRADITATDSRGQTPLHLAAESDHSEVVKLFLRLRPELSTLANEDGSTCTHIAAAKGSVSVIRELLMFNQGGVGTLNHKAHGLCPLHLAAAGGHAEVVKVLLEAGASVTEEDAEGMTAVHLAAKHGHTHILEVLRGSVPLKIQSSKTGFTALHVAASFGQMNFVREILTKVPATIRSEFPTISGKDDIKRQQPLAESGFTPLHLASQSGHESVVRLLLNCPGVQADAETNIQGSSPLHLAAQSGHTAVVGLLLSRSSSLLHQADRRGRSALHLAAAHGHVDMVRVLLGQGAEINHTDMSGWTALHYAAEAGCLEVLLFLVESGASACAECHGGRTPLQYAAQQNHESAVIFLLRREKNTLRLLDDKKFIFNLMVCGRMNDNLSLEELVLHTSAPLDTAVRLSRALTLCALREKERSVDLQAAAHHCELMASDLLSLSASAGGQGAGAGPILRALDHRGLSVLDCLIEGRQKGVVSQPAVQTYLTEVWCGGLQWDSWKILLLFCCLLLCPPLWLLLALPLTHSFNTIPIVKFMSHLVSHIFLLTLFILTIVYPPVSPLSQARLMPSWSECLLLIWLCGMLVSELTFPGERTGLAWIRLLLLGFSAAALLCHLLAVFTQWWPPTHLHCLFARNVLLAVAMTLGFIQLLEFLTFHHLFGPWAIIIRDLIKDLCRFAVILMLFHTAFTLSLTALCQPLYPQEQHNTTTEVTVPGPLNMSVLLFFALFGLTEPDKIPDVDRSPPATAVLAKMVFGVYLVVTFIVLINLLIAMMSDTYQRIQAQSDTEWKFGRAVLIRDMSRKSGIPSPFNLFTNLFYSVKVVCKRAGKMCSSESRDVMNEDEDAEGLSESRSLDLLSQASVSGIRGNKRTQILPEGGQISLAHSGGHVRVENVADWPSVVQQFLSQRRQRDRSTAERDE
T3 sequence (Q9NZJ5 whole entry): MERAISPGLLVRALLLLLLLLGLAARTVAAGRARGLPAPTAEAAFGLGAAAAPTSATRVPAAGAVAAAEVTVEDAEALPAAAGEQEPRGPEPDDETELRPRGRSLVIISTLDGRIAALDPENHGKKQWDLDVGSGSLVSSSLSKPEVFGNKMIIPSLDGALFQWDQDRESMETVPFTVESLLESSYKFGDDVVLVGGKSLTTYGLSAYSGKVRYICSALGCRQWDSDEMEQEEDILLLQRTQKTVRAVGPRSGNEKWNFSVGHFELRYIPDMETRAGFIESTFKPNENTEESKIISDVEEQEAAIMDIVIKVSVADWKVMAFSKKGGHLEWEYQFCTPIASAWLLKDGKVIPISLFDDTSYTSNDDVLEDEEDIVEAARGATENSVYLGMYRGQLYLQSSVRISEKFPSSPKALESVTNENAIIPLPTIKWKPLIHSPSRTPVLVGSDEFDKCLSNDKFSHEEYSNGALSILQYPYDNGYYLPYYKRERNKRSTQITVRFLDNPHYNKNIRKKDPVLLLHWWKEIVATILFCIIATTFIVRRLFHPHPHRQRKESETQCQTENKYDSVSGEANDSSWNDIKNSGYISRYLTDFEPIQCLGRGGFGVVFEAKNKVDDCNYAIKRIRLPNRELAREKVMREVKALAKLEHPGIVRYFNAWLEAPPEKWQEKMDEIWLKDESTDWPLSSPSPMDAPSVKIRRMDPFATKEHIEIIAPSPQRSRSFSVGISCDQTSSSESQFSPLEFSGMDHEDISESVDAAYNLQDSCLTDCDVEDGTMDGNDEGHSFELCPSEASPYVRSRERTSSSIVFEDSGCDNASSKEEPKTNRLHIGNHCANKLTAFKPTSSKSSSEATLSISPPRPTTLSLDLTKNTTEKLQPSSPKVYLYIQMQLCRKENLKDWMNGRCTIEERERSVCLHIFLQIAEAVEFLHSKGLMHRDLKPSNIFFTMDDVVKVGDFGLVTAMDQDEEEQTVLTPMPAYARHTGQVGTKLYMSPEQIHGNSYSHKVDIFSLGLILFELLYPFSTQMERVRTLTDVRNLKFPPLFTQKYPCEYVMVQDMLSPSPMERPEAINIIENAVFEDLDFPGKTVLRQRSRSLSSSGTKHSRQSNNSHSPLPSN

For the compound `Cc1ccc(S(=O)(=O)Nc2ccccc2-c2ccccc2)cc1`, the EC50 is 1.59 µM (active) in test [1]; > 29.9 µM (inactive) in [2]; 11.2 µM (active) in test [3]; > 29.9 µM (not active) in test [4]; > 120 µM (not active) in test [5]; 2.14 µM (active) in [7]. The EC50 in test [8] is reported as > 120 µM (not active). Also, the IC50 in test [6] is 79.9 µM (inactive).

Consider `COC(=O)c1ccc(OCCOc2ccc(C(=O)OC)cc2)cc1`, for which the 50% effective concentration (EC50) in [9] and in [10] was > 55.7 µM (not active) throughout.

As for `Cc1ccc(Cl)cc1NC(=O)c1cc2ccccc2cc1O`, the concentration for a half-maximal effect (EC50) in [11] is reported as 15.1 µM (not active); in [12], 17.1 µM (not active); in test [13] it was > 35.4 µM (not active).
